One series concerns MB49. The series can be described thus: MTT antiproliferative assay. The class given is cell-based, murine. Conditions: for SI (selectivity index), MB49: IC50 UROtsa / IC50 MB49; for IC50: Mus musculus, MB49, MTT, 72 h, read-out: IC50 ± SD, MB49. The method, then:
(§1) The IC50 values indicate that 5c is effective across multiple bladder cancer cell lines (Figure 2 and Table 2).
(§2) The antiproliferative activities of various compounds examined in this report were measured using the MTT (3-[4,5-dimethylthiazol-2-yl]-2,5-diphenyl-tetrazolium bromide) reduction assay, as previously described. Briefly, cells were seeded at 2 × 10^3 cells per well in a 96-well plate and cultured overnight. The cells were then treated with different doses (5 µM, 10 µM, 15 µM, 20 µM, 25 µM, 30 µM, 35 µM, 40 µM in DMSO) for 72 h. Viability of the treated cultures was estimated by conversion of MTT to the insoluble formazan after 3h incubation at 37 °C and 5% CO2. The purple-colored formazan crystals were dissolved in DMSO, and absorbance was recorded at wavelengths 570/640 nm using the Bio-Rad Benchmark Plus Microplate Reader. The percent of viable cells was calculated ODtreated cells/ODcontrol cell wells × 100.
A general note: Tetrazolium assays rely on reduction of a dye to a coloured formazan, in cell work by metabolically active cells.

The test system of series [1] is 5637 cells. The series can be described thus: Annexin V-FITC/PI apoptosis flow cytometry. Type of series: cell-based. The settings on record: Homo sapiens, 24 h, read-out: Q3-3 (Q3, viable) cells. The method, then:
(§3) The potential of cells treated with UA or 5c to undergo dose-dependent apoptosis was explored using quantitative flow cytometric analysis, as shown in Figure 4. Utilizing a kit that detects quantitative binding of Annexin V to externalized phosphatidyl serine during the apoptosis cascade and permeability of Propidium iodide (PI) in cells undergoing cell death, we determined the cells at various stages of cell death following 24h incubation with UA and 5c in various bladder cancer cells.
(§4) We used a fluorescence-based Annexin V binding assay to determine the fraction of the cell population undergoing early and late apoptosis due to the cytotoxicity of the drugs. Cells plated in a 60 mm dish overnight at 0.3 × 10^6 cells/well were incubated with the selected drug at several doses for 24 h. Subsequently, treated cells were labeled with FITC-Annexin V using a kit (eBioscience™ Annexin V Apoptosis Detection Kits; Invitrogen # 88-8005-72, Thermo Fisher Scientific, Seoul, Korea) as per the manufacturer’s instructions. Intact cell suspension labeled with FITC-Annexin V and PI was run on the NovoCyte Quanteon flow cytometer, and data were acquired in list mode. Acquired data were analyzed using NovoExpress software (version 1.6.1). Cells treated with Staurosporine (0.2 µM) act as a positive control.

A further series relates to HT-1376. Briefly: MTT antiproliferative assay. The settings on record: for IC50: Homo sapiens, HT-1376, MTT, 72 h, read-out: IC50 ± SD, HT-1376; for SI (selectivity index), HT-1376: IC50 UROtsa / IC50 HT-1376. The class given is cell-based, human. The protocol: as §1, §2
The test system of series [2] is 5637 cells. Briefly: MTT antiproliferative assay. Type of series: cell-based, human. The settings on record: for IC50: Homo sapiens, 72 h, MTT, read-out: IC50 (Mean ± SD), 5637; for SI (selectivity index), 5637: IC50 MCF-12A / IC50 5637. The protocol: (§5) The synthesized hybrid conjugates 5a–d were evaluated for their antiproliferative activity against the established human bladder cancer cell lines T24 and 5637. Test compounds were dissolved in ultrapure dimethyl sulfoxide (DMSO), diluted in cell culture media, added to cells cultured in 96-well cluster wells, and incubated for 72 h. The concentration of DMSO in culture media was maintained at < 0.05%. As previously reported, the fraction of viable cells in the culture wells was compared to that in cultures with 0.05% DMSO-only using a colorimetric assay, the Methyl Tetrazolium Bromide (MTT) reduction assay. We determined the selectivity index (SI) of the compounds 5a–d against tumor cells by comparing their cytotoxicity to that of a non-tumorigenic breast epithelial cell line, MCF-12A, as well as a non-tumorigenic, immortalized urothelial cell line, UROtsa (Table 1, and Figure 2).
as §2

The subject of series [3] is T24 cells. The series can be described thus: MTT antiproliferative assay. The class given is cell-based, human. The settings on record: for IC50: Homo sapiens, T-24, MTT, 72 h, read-out: IC50 (Mean ± SD), T24; for SI (selectivity index), T24: IC50 MCF-12A / IC50 T24. The protocol: as §5, §2
In another series the test system is MB49 cells. Briefly: Annexin V-FITC/PI apoptosis flow cytometry. Type of series: cell-based, murine. The settings on record: Mus musculus, MB49, 24 h. The method, then: as §3, §4
In the next series the test system is UROtsa. The series can be described thus: MTT assay, non-tumorigenic immortalized urothelial cell line. The class given is cell-based, human. Conditions: for IC50: Homo sapiens, MTT, 72 h, non-tumorigenic cells, read-out: IC50 ± SD, UROtsa. The method, then: as §5, §2
In series [4] the test system is T24 cells. Briefly: ROS estimation with H2DCFDA. Type of series: cell-based, human. The settings on record: T24, 24 h, all tested concentrations (5–40 µM). The protocol: Since 5c was not toxic to non-tumorigenic cells, such as MCF12A and UROtsa, these cells were excluded from experiments aimed at identifying the broad mechanism of cytotoxicity. A common mechanism by which these antioxidants induce cytotoxicity in tumor cells is by generating Reactive Oxygen Species (ROS) selectively in fast-growing tumor cells. The levels of ROS generated by 5c exposed cells were evaluated with the oxidation of 2′,7′-dichlorodihydrofluorescein diacetate (H2DCFDA). It is a cell-permeant fluorescent probe used for detecting ROS production (Thermo Scientific Inc., Waltham, MA, USA). […] Figure 3 illustrates the quantification of intracellular ROS levels in four bladder cancer cell lines, 5637, T24, HT-1376, and MB49, following treatment with UA and its biotin-conjugated derivative, compound 5c.
The relative levels of intracellular ROS produced in untreated and drug-treated cells were analyzed by fluorimetry using the fluorescent probe H2DCFDA (Sigma-Aldrich, #D6883, St. Louis, MI, USA), as described previously. Briefly, cells cultured in a 96-well plate at 1 × 10^4 cells per well were treated with drugs of interest for 24 h rinsed with sterile PBS to remove excess drugs, and incubated with 10 μM DCFDA for 30 min at 37 °C and 5% CO2. Following three rinses with PBS, the fluorescence intensity was recorded at excitation: 485/20, emission: 528/20 using a BioTek Synergy HTX Multimode fluorescence plate reader (Agilent Technologies, Inc., Santa Clara, CA, USA), and the data were represented as percentage change compared to the respective untreated control.
Figure 3 Estimation of oxidative stress: Treatment with UA or 5c increased ROS levels in various bladder cancer cells. ROS levels were estimated at 24 h using DCFDA. The relative fluorescence unit (RFU) was normalized to that observed in untreated cells and expressed as a percent increase. Data are Means ± SD, (n = 4). Relative significance, expressed as p-value are calculated based on one-way ANOVA.

Molecules are shown by their SMILES. Like-named read-outs stand apart in the source and are kept apart here.

Usually IC50 stands for the concentration needed to halve the response being measured. Turning to `CC1CCC2(C(=O)OCCCCOC(=O)CCCCC3SCC4NC(=O)NC43)CCC3(C)C(=CCC4C5(C)CCC(O)C(C)(C)C5CCC43C)C2C1C` [Compound 5c, 4-((5-((3aS,4S,6aR)-2-Oxohexahydro-1H-thieno [3,4-d]imidazol-4-yl)pentanoyl)oxy) butyl 3-hydroxy-urs-12-en-28-oate], the “SI (selectivity index), MB49” value in the series with MB49 was determined as 4.63. Further, the IC50 in the series on MB49 was determined as 13.6 ± 0.18 µM; with HT-1376, 12.7 ± 0.4 µM; in the series on 5637 cells [2] it was 11 ± 0.19 µM; in the series on T24 cells [3] it was 14.2 ± 1.01 µM; in the series with UROtsa, 62.9 ± 3.84 µM. The viability at 10 µM turned out to be 33% with 5637 cells [1] (5637, 10 µM) and 39.4% in the series with MB49 cells (MB49, 10 µM, 24 h, read-out: Q4-3 (Q3, viable) cells). The viability at 15 µM with 5637 cells [1] (5637, 15 µM) was 27.9%; in the series with MB49 cells (MB49, 15 µM, 24 h, read-out: Q4-3 (Q3, viable) cells), 35.6%. The “SI (selectivity index), HT-1376” value in the series with HT-1376 was 4.96. The “SI (selectivity index), 5637” value with 5637 cells [2] came out at 7.58. Besides, in the series with T24 cells [3], the “SI (selectivity index), T24” value is 5.85. Moreover, in the series on T24 cells [3] (IC50 UROtsa / IC50 T-24), the “IC50 in µM (selectivity index in parentheses), T-24” value is on record as 14.20 ± 1.01 (4.43). For the same compound, the “toxicity to non-tumorigenic cells” value in the series on UROtsa (UROtsa) is listed as “not toxic”. Moreover, in the series with T24 cells [4], the “ROS levels” value is listed as “comparable increases in ROS levels”.
Consider `C[C@H]1[C@H](C)CC[C@]2(C(=O)O)CC[C@]3(C)C(=CC[C@@H]4[C@@]5(C)CC[C@H](O)C(C)(C)[C@@H]5CC[C@]43C)[C@H]12` [UA, Ursolic acid], for which the “SI (selectivity index), MB49” value in the series on MB49 turned out to be 6.26. Besides, the IC50 came to 10.7 ± 0.36 µM in the series with MB49; 21.9 ± 1.14 µM in the series on HT-1376; 13.4 ± 0.35 µM with 5637 cells [2]; 17.5 ± 0.98 µM in the series with T24 cells [3]; 67 ± 7.15 µM in the series on UROtsa. The viability at 10 µM in the series on 5637 cells [1] was 69.5%; in the series with MB49 cells (read-out: Q4-3 (Q3, viable) cells, MB49, 10 µM, 24 h) it was 74.4%. The viability at 15 µM with 5637 cells [1] worked out at 64.6%; in the series on MB49 cells (read-out: Q4-3 (Q3, viable) cells, MB49, 15 µM, 24 h) it was 64.5%. For the same compound, the “SI (selectivity index), HT-1376” value with HT-1376 is recorded as 3.06. In addition, in the series with 5637 cells [2], the “SI (selectivity index), 5637” value is 4.19. Further, in the series with T24 cells [3], the “SI (selectivity index), T24” value is 3.21. Further, the “ROS levels” value in the series on T24 cells [4] is listed as “comparable increases in ROS levels”.
